Test results from US20240140931A1, “TRICYCLIC COMPOUNDS AND USES THEREOF” (HUTCHMED LIMITED, priority 2021, published 2024).

How the values were obtained:
[1] = target: Human full-length SHP2 recombinant protein (Homo sapiens (Human), UniProt Q06124); test: Assay of full-length SHP2 phosphatase activity; type: biochemical; conditions: DiFMUP substrate, with activating peptide
Protocol: Example 2 Assay of Full-Length SHP2 Phosphatase Activity
1. Reagents and Materials • Human full-length SHP2 recombinant protein: BPS Bioscience, Cat #79018; • SHP2 substrate DiFMUP (1 mM): BPS Bioscience, Cat #79769; • SHP2 activating peptide (100 μM): BPS Bioscience, Cat #79319-2; • DTT: Merck, Cat #DTT-RO; • 384-well plate: Corning, Cat #3575; • 96-well plate: Thermo Fisher Scientific, Cat #249952; • Instrument: EnVision 2104, PerkinElmer.
2. Preparation of Reaction Solutions
The test compound was dissolved in DMSO and diluted with DMSO to 100.0 μM, and the compound was further 3-fold diluted with DMSO to: 100.00, 33.33, 11.11, 3.70, 1.23, 0.41, 0.14 and 0.05 μM.
3. Experimental Steps • To the corresponding wells of the 384-well plate was added 2.5 μL of 4× test compound or 2.5 μL of 4% DMSO solution, and centrifugation was carried out at 1000 rpm for 30 seconds. • To the test compound well and positive control well was added 2.5 μL of 4× mixed solution of SHP2 enzyme/activating peptide while to the negative control well was added 2.5 μL of 1× enzymatic reaction buffer; centrifugation was carried out at 1000 rpm for 30 seconds and incubation was carried out at room temperature for 30 minutes. • To each well was added 5 μL of 2×DiFMUP substrate to initiate the enzymatic reaction, then the plate was transiently oscillated and centrifuged at 1000 rpm for 30 seconds, and the 384-well plate was sealed with a sealing membrane and incubated at 25° C. on a low-speed shaker (100 rpm) in the dark for 60 minutes. • The fluorescence value (relative fluorescence units, RFU) of each well was detected on EnVision2104 (excitation: 355 nm, emission: 460 nm).
wherein • the RFU of compound well refers to the fluorescence reading at 460 nm of the well containing the test compounds; • the RFU of negative control well refers to the fluorescence reading at 460 nm of the background well containing 1% DMSO and the enzymatic reaction buffer; • the RFU of positive control well refers to the fluorescence reading at 460 nm of the well containing 1% DMSO and the mixed solution of SHP2 enzyme/activating peptide.
(§1) IC50 values were calculated following formula 205: y=A+((B−A)/(1+((C/X)^D))), by using the XL-Fit 5.0 software.

[2] = test system: pERK1/2 (Thr202/Tyr204) in Miapaca2 cells; test: Assay of intracellular pERK1/2 (Thr202/Tyr204) phosphorylation; type: cell-based; conditions: pERK1/2 (Thr202/Tyr204) HTRF
Protocol: Example 3 Assay of Intracellular pERK1/2 (Thr202/Tyr204) Phosphorylation
1. Reagents and Materials • pERK1/2 (Thr202/Tyr204) HTRF kit: Cisbio, Cat #64ERKPEH; • Cell line: Miapaca2, ATCC, CRL-1420; • OptiPlate™-384-well plate: PerkinElmer, Cat #6007299; • 96-well plate: Corning, Cat #353072; • Instrument: EnVision2104, PerkinElmer.
2. Preparation of Reaction Solutions • The test compound was dissolved in DMSO and diluted with DMSO to 600.0 μM, and the compound was further 3-fold diluted with DMSO to: 600.0, 200.0, 66.7, 22.2, 7.4, 2.5, 0.82 and 0.27 μM. Then 10 μL of the compound at different dilution concentrations was added to 190 μL of a DMEM medium to prepare a 10× test compound, wherein DMSO was at the concentration of 5% (DMSO was at the final concentration of 0.5%). • 1× cell lysis buffer: 4× cell lysis stock solution (provided by the kit) was diluted 4-fold with deionized water, and then 1% 100× blocking stock solution (provided by the kit) was added thereto. • pERK1/2 detection solution (prepared just before use): the pERK1/2 d2 antibody (provided by the kit) and pERK1/2 Cryptate antibody (provided by the kit) were diluted with the detection solution (provided by the kit) at a ratio of 1:1:38.
3. Experimental Steps • Miapaca2 cells were inoculated into a 96-well plate at a density of 10000 cells/well at 90 μL/well and cultured in a cell incubator at 5% CO2 and 37° C. overnight. • 10 μL of 10× test compound was added to the 90 μL cell culture 96-well plate; to the cell positive control well was added 10 μL of 5% DMSO culture solution; and the plate was cultured in a cell incubator at 5% CO2 and 37° C. for 2 hours. • The medium in the 96-well plate was removed; 50 μL of 1× cell lysis buffer was added to each well; the plate was placed in a microplate shaker; and lysis under shaking was carried out at 900 rpm at room temperature for 1 hour. • 16 μL of the lysis buffer in the 96-well plate was taken and transferred to a 384-well plate, and centrifugation was carried out at 1000 rpm for 30 seconds; then 4 μL of pERK1/2 detection solution was added to each well and centrifugation was carried out at 1000 rpm for 30 seconds; and the 384-well plate was sealed with a sealing membrane and incubated at 25° C. on a low-speed shaker (100 rpm) in the dark for 2 hours. • The fluorescence value (relative fluorescence units, RFU) of each well was detected on EnVision2104 (emission 1: 665 nm, emission 2: 615 nm).
wherein • the fluorescence ratio of compound well refers to the fluorescence ratio of the well containing the test compounds; • the fluorescence ratio of negative control well refers to the fluorescence ratio of the background containing the cell lysis buffer and no Miapaca2 cells; • the fluorescence ratio of positive control well refers to the fluorescence ratio of the well containing 0.5% DMSO and Miapaca2 cells.
as §1

| Compound | IC50 [1] | IC50 ([2]; 2 hours) | IC50 ([2]; Homo sapiens, MIA PaCa-2, 2 h) |
| --- | --- | --- | --- |
| C#Cc1ccc2c(c1)[C@@H](N)C1(CCN(c3cc(=O)n(-c4ccc(F)c(OC)c4F)c(C)n3)CC1)C2 [Compound 78] | 0.003 µM | 0.043 µM | – |
| COc1c(F)ccc(-n2c(C)nc(N3CCC4(CC3)Cc3ccc(C#CCN(C)C)cc3[C@H]4N)cc2=O)c1F [Compound 83] | 0.001 µM | – | 0.057 µM |
| C#Cc1ccc2c(c1)[C@@H](N)C1(CCN(c3cc(=O)n(-c4c(F)cccc4F)c(C)n3)CC1)C2 [Compound 35] | 0.017 µM | – | 0.274 µM |
| C#Cc1cccc2c1CC1(CCN(c3cc(=O)n(-c4cccc(Cl)c4Cl)c(C)n3)CC1)[C@@H]2N [Compound 80] | 0.004 µM | – | 0.125 µM |
| Cc1nc(N2CCC3(CC2)Cc2ccc(C#CCO)cc2[C@H]3N)cc(=O)n1-c1cc(Cl)ccc1Cl [Compound 85] | 0.05 µM | – | 0.785 µM |
| COCC#Cc1ccc2c(c1)[C@@H](N)C1(CCN(c3ncc(Sc4ccnc(N)c4Cl)c4nccn34)CC1)C2 [Compound 40] | 0.002 µM | – | 0.006 µM |
| COCC#Cc1ccc2c(c1)[C@@H](N)C1(CCN(c3ncc(Sc4ccnc(N)n4)nc3CO)CC1)C2 [Compound 87, (S)-(3-(1-amino-6-(3-methoxyprop-1-yn-1-yl)-1,3-dihydrospiro[indene-2,4′-piperidin]-1′-yl)-6-((2-aminopyrimidin-4-yl)thio)pyrazin-2-yl)methanol] | 0.001 µM | – | 0.002 µM |
| C#Cc1ccc2c(c1)[C@@H](N)C1(CCN(c3nc(C)n(-c4cccc(Cl)c4Cl)c(=O)c3C)CC1)C2 (atropisomer, axis not shown) [Compound 48] | 0.063 µM | 0.231 µM | – |
| Cc1nc(N2CCC3(CC2)Cc2ccc(C#CCN(C)C)cc2[C@H]3N)cc(=O)n1-c1cc(Cl)ccc1Cl [Compound 84] | 0.067 µM | – | > 1 µM |
| COCCSc1ccc2c(c1)[C@@H](N)C1(CCN(c3cc(=O)n(-c4ccc(F)c(OC)c4F)c(C)n3)CC1)C2 [Compound 101] | 0.012 µM | – | 0.096 µM |
| COCC#Cc1ccc2c(c1)[C@@H](N)C1(CCN(c3cc(=O)n(-c4ccc(C#N)cc4Cl)c(C)n3)CC1)C2 [Compound 93] | 0.016 µM | – | 0.301 µM |
| Cc1c(N2CCC3(CC2)Cc2ccc(C#CCN(C)C)cc2[C@H]3N)nc(C)n(-c2cccc(Cl)c2Cl)c1=O (atropisomer, axis not shown) [Compound 51] | 0.001 µM | 0.021 µM | – |
| C#Cc1ccc2c(c1)[C@@H](N)C1(CCN(c3nc(C)n(-c4ccc(F)cc4Cl)c(=O)c3C)CC1)C2 (atropisomer, axis not shown) [Compound 102] | 0.002 µM | 0.012 µM | – |
| CN(C)CC#Cc1ccc2c(c1)C(=O)C1(CCN(c3ncc(Sc4ccnc(N)c4Cl)c4nccn34)CC1)C2 [Compound 72] | 0.978 µM | – | > 1 µM |
| CNCC#Cc1ccc2c(c1)[C@@H](N)C1(CCN(c3ncc(Sc4ccnc(N)c4Cl)c4nccn34)CC1)C2 [Compound 91] | 0.0007 µM | – | 0.017 µM |
| C#Cc1ccc2c(c1)CC1(CCN(c3ncc(Sc4ccnc(NC5CCC5)c4Cl)c4nccn34)CC1)[C@@H]2N [Compound 10] | 0.035 µM | – | 0.22 µM |
| C#Cc1ccc2c(c1)[C@@H](N)C1(CCN(c3cc(=O)n(-c4cccc(C#N)c4Cl)c(C)n3)CC1)C2 [Compound 34] | 0.004 µM | 0.244 µM | – |
| C#Cc1ccc2c(c1)CC1(CCN(c3ncc(Sc4ccnc(N)n4)c4nccn34)CC1)[C@@H]2N [Compound 9] | 0.004 µM | – | 0.038 µM |
| C#Cc1ccc2c(c1)[C@@H](N)C1(CCN(c3cc(=O)n(-c4cccc(Cl)c4F)c(C)n3)CC1)C2 [Compound 16] | 0.004 µM | 0.034 µM | – |
| COCC#Cc1cccc2c1CC1(CCN(c3ncc(Sc4ccnc(N)c4Cl)c4nccn34)CC1)[C@@H]2N [Compound 97] | 0.002 µM | – | 0.011 µM |
| C#Cc1ccc2c(c1)CC1(CCN(c3ncc(Sc4ccnc(N)c4Cl)c4nccn34)CC1)[C@@H]2N [Compound 1, (S)-1′-(8-((2-amino-3-chloropyridin-4-yl)thio)imidazo[1,2-c]pyrimidin-5-yl)-5-ethynyl-1,3-dihydrospiro[indene-2,4′-piperidin]-1-amine] | 0.002 µM | – | 0.018 µM |

The remaining lines, values ahead:

| IC50 [1] | IC50 ([2]; 2 hours) | IC50 ([2]; Homo sapiens, MIA PaCa-2, 2 h) | Compound |
| --- | --- | --- | --- |
| 0.01 µM | – | 0.188 µM | CCNC(=O)C#Cc1ccc2c(c1)[C@@H](N)C1(CCN(c3ncc(N4CCCc5ncccc54)nc3C)CC1)C2 [Compound 258] |
| 0.0006 µM | – | 0.013 µM | Cc1nc(N2CCC3(CC2)Cc2ccc(C#CC(N)=O)cc2[C@H]3N)cc(=O)n1-c1cccc(Cl)c1Cl [Compound 127] |
| 0.253 µM | 0.672 µM | – | C#Cc1ccc2c(c1)[C@@H](N)C1(CCN(c3cc(=O)n(-c4ccc(C#N)c(OC)c4Cl)c(C)n3)CC1)C2 (atropisomer, axis not shown) [Compound 190] |
| 0.002 µM | – | 0.026 µM | CCOCC#Cc1ccc2c(c1)[C@@H](N)C1(CCN(c3cc(=O)n(-c4cccc(Cl)c4Cl)c(C)n3)CC1)C2 [Compound 115] |
| 0.009 µM | 0.084 µM | – | C#Cc1ccc2c(c1)[C@@H](N)C1(CCN(c3cc(=O)n(-c4cccc(C(F)(F)F)c4Cl)c(C)n3)CC1)C2 [Compound 106] |
| 0.052 µM | 0.527 µM | – | CNC(=O)C#Cc1ccc2c(c1)[C@@H](N)C1(CCN(c3cc(=O)n(-c4ccc(F)c(F)c4Cl)c(C)n3)CC1)C2 (atropisomer, axis not shown) [Compound 210] |
| 0.178 µM | 0.698 µM | – | C#Cc1ccc2c(c1)[C@@H](N)C1(CCN(c3cc(=O)n(-c4cccc(C(F)(F)F)c4Cl)c(C)n3)CC1)C2 (atropisomer, axis not shown) [Compound 119] |
| 0.025 µM | – | 0.124 µM | C#Cc1cc(F)c2c(c1)[C@@H](N)C1(CCN(c3nc(C)n(-c4cccc(Cl)c4Cl)c(=O)c3F)CC1)C2 [Compound 167] |
| 0.017 µM | – | 0.161 µM | C#Cc1ccc2c(c1)[C@@H](N)C1(CCN(c3cc(=O)n(-c4ccc(OC)c(Cl)c4Cl)c(C)n3)CC1)C2 [Compound 211] |
| 0.0013 µM | 0.015 µM | – | COCC#Cc1ccc2c(c1)[C@@H](N)C1(CCN(c3cc(=O)n(-c4ccc(F)c(Cl)c4Cl)c(C)n3)CC1)C2 (atropisomer, axis not shown) [Compound 124] |
| 0.045 µM | – | 0.385 µM | COCC#Cc1ccc2c(c1)[C@@H](N)C1(CCN(c3ncc(-c4cn(C)c5ncccc45)c4nccn34)CC1)C2 [Compound 120] |
